Measurements as given in ChEMBL document CHEMBL6109060, “Potent HIV‑1 protease inhibitors containing oxabicyclo octanol-derived P2-ligands: Design, synthesis, and X‑ray structural studies of inhibitor-HIV-1 protease complexes” (Bioorg Med Chem Lett, 2025).

Key:
[1] = target: Human immunodeficiency virus type 1 protease (Human immunodeficiency virus 1, UniProt Q72874); assay: Inhibition of HIV-1 protease using Abz-Thr-Ile-Nle-Phe-(p-NO2)-Gln-Arg-NH2 as substrate preincubated for 5 to 10 mins followed by substrate addition and measured after 1 hr by spectrofluorometric assay
[2] = tested on: Human immunodeficiency virus 1; assay: Antiviral activity against HIV-1 LAI infected in human MT2 cells reduction in virus-induced cytopathic effect measured after 7 days by MTT assay; format: functional, organism-based; conditions: Human immunodeficiency virus 1, LAI, MT2, 168 h

Compound	Ki [1] [nM]	EC50 [2] [nM]
COc1ccc(S(=O)(=O)N(CC(C)C)C[C@@H](O)[C@H](Cc2ccccc2)NC(=O)O[C@H]2CC[C@H]3C[C@@H]4CO[C@H](c5ccccc5)[C@]42O3)cc1	424	> 1000
COc1ccc(S(=O)(=O)N(CC(C)C)C[C@@H](O)[C@H](Cc2ccccc2)NC(=O)O[C@@H]2CC[C@@H]3C[C@H]4CO[C@@H](c5ccccc5)[C@@]42O3)cc1	1300	> 1000
COc1ccc(S(=O)(=O)N(CC(C)C)C[C@@H](O)[C@H](Cc2ccccc2)NC(=O)O[C@H]2CC[C@@H]3C[C@H]4CO[C@@H](C(C)C)[C@@]42O3)cc1	855	
COc1ccc(S(=O)(=O)N(CC(C)C)C[C@@H](O)[C@H](Cc2ccccc2)NC(=O)O[C@@H]2CC[C@@H]3C[C@H]4CO[C@@H](C)[C@@]42O3)cc1	20.6	> 1000
COc1ccc(S(=O)(=O)N(CC(C)C)C[C@@H](O)[C@H](Cc2ccccc2)NC(=O)O[C@@H]2CC[C@H]3C[C@@H]4CO[C@H](c5ccccc5)[C@]42O3)cc1	272	> 1000
COc1ccc(S(=O)(=O)N(CC(C)C)C[C@@H](O)[C@H](Cc2ccccc2)NC(=O)O[C@@H]2CC[C@@H]3C[C@H]4CO[C@@H](C(C)C)[C@@]42O3)cc1	620	> 1000
COc1ccc(S(=O)(=O)N(CC(C)C)C[C@@H](O)[C@H](Cc2ccccc2)NC(=O)O[C@H]2CC[C@@H]3C[C@H]4CO[C@@H](C)[C@@]42O3)cc1	1.65	240
COc1ccc(S(=O)(=O)N(CC(C)C)C[C@@H](O)[C@H](Cc2ccccc2)NC(=O)O[C@H]2CC[C@@H]3C[C@H]4CO[C@@H](c5ccccc5)[C@@]42O3)cc1	43	> 1000
